Data reported in US20200329698A1, “COMPOSITIONS FOR ORGAN GRAFT PRESERVATION AND METHODS OF USE” (Nobilis Therapeutics, Inc., priority 2019, published 2020).

How the values were obtained:
[1] = system: Lewis rat lung grafts extracted after cardiac death
Procedure: Inbred adult male Lewis rats (LEW, RT1^1) weighing 225-250 g were purchased from Harlan, UK and bred in temperature- and humidity-controlled cages in a specific pathogen-free facility at the Chelsea-Westminster Campus, Imperial College London. All animal procedures were carried out in accordance with the United Kingdom Animals (Scientific Procedures) Act of 1986. For cardiac arrest model (DCD donor) in anaesthetized rats, anticoagulation was accomplished by injecting 250 U Heparin in 1 ml saline via the penile vein. Five minutes after heparinization, a laparotomy was performed through a midline incision. A thoracotomy was performed followed by induction of cardiac arrest by external compression of the heart for 5 min. After induction of cardiac arrest, the aorta was closed using a vascular clamp rostral from the heart. The thoracotomy wound was covered with gauze and kept moist with 0.9% NaCl. After 40 minutes in DCD donors, the entire graft, lung or kidney, in the donor was isolated and excised. Lung grafts were flushed through the main pulmonary artery and stored at 4° C. for 16 hours with either control UW solution or UW with Dex (0.1 nM) solution. Lung or kidney grafts were fixed in 4% parafamydehyde and paraffin. Sections of 5-μm thickness were taken from the kidney specimens and haematoxylin & eosin (H&E) staining was carried out. Lung cell morphology in each graft (10 fields in the cortex at ×20 magnifications) was evaluated by an observer blinded to the treatment using an OLYMPUS™ (Watford, UK) BX4 microscope under constant exposure level. The score for each field was calculated from the sum score of 10 areas chosen at a random. For the lung sections, the injury was categorised into Grade 0: normal appearance, negligible damage; Grade 1: mild moderate interstitial congestion and neutrophil leukocyte infiltrations; Grade 2: perivascular oedema formation, partial destruction of pulmonary architecture and moderate cell infiltration; Grade 3: moderate lung alveolar damage and intensive cell infiltration; Grade 4: severe cell infiltration and severe destruction of the pulmonary architecture. For in vivo fluorescence or DAB staining, 25-μm frozen lung sections were incubated with rabbit anti-Rip1 (1:200, SANTA CRUZ BIOTECHNOLOGY®), rabbit anti-Rip3 (1:200, SANTA CRUZ BIOTECHNOLOGY®), mouse anti-HMGB-1 (1:200, Abcam), Goat anti-TLR-4 (1:200, SANTA CRUZ BIOTECHNOLOGY®), rabbit anti-Nrf-2 (1:200, SANTA CRUZ BIOTECHNOLOGY®), mouse anti-SOD-1 (1:200, Abcam), mouse anti-NQO-1 (1:200 Abcam), rabbit anti-3-nitrotyrosine (1:200, Abcam) and rabbit anti-4-hydroxynonenal (1:200, Abcam) at 4° C. overnight. After washing with PBST, the slides were incubated with fluorochrome-conjugated secondary antibodies (MILLIPORE™, UK). For double-labelled immunofluorescence, lung samples were incubated with the first primary antibody overnight, followed by the first secondary antibody, and then the second primary antibody and the second secondary antibody. The slides were counterstained with nuclear dye DAPI and mounted with […]® Mounting Medium (Vector lab, USA). Sections were examined using an OLYMPUS™ (Watford, UK) BX4 microscope under constant exposure level. Immunofluorescence was quantified using ImageJ (National Institutes of Health, Maryland, USA) and the background was subtracted. Ten representative regions per section (in vivo) or field (in vitro) were randomly selected by an assessor blinded to the treatment groups. Values were then calculated as percentages of the mean value for naïve controls and expressed as percentage fluorescence intensity. Lung alveolar cell death was detected by the in situ TUNEL assay (MILLIPORE™) according to the manufacturer's instructions. TUNEL nuclei were visualized by green FITC fluorescence. Tumor necrosis factor-α (TNF-α) in the culture medium were detected by ELISA (Human TNF-α ELISA kits, INVITROGEN®, UK). Rat lung tissue and serum TNF-α were measured by ELISA (Rat TNF-α ELISA kits, INVITROGEN®, UK). […]

[2] = system: JAK/STAT signaling pathway; details: cited from earlier work
[3] = system: ex vivo renal grafts from brain death or cardiac arrest donors; test: Rat hypothermic machine perfusion model; details: exposure of ex vivo grafts prior to engraftment
[4] = Dex 0.1 nM in UW at 4° C., CI 16 hr, vs vehicle
[5] = Dex-saturated UW, CI 16 h, p<0.001
[6] = Dex-saturated UW, CI 16 h, p<0.05

Cc1cccc([C@H](C)c2cnc[nH]2)c1C [Dexmedetomidine]
HMGB-1 release [1, 4]: reduction
TLR-4 activation (fluorescent intensity) [1, 4]: reduction
cell death (TUNEL staining) [1, 4]: reduced cell death
concentration of HMGB-1 in lung graft tissue (ELISA) [1, 4]: significantly reduced
concentration of IL-1β in lung graft tissue (ELISA) [1, 4]: significantly reduced
concentration of TNF-α in lung graft tissue (ELISA) [1, 4]: significantly reduced
expression of necroptosis marker RIP1 (fluorescent intensity) [1, 4]: significantly reduced
expression of necroptosis marker RIPS (RIPK3 fluorescent intensity) [1, 4]: significantly reduced
lung morphology (H&E, lung injury scoring) [1, 4]: marked improvement in morphology
expression of 3-nitrotyrosine (fluorescent intensity) ([1]; Dex-saturated UW, CI 16 h, vs control group, p<0.001): significant reduction
expression of 4-hydroxynonenal (fluorescent intensity) ([1]; Dex-saturated UW, CI 16 h, vs control group, p<0.05): significant reduction
expression of Nrf-2 (fluorescent intensity) [1, 5]: significant increase
expression of SOD-1 (fluorescent intensity) [1, 5]: significant increase
lung tissue GSH/GSSG ratio [1, 5]: significant increase
lung tissue GSSG level ([1]; Dex-saturated UW, CI 16 h, p<0.01): significant decrease
expression of NQO-1 (fluorescent intensity) [1, 6]: significant increase
lung tissue GSH level [1, 6]: significant increase
level of p-JAK2 and its downstream effectors p-STAT1 and STATS ([2]; mice, warm ischemia-reperfusion injury): significant reduced level
long-term renal function ([2]; mouse, in vivo): long-term functional renoprotection
survival ([2]; mouse, in vivo): increased survival
tubular architecture and function following renal ischemia ([2]; pre- or post-treatment): improved tubular architecture and function
organ graft injury, histologically and functionally [3]: prevent organ graft injury
